Test results from patent publication US20110212899A1, “Corneal Neuritogenesis Promoter Containing Pacap and Its Derivative” (priority 2004, published 2011).
Where no end group is shown, it is not given here.

How the values were obtained:
[1] = test system: cultured rabbit trigeminal nerve cells; experiment: Promoting effect on neuritogenesis in cultured rabbit trigeminal nerve cells (2) (Test Example 4); assay type: cell-based; settings: cultured for 48 hours, control group 20.7%
Source text: Japanese white rabbits (2 to 3 days old) purchased from Kitayama Labes Co., Lid. were used.
Rabbit trigeminal nerve cells were isolated according to a method reported by Chan et al. (Kwan Y. Chan and Richard H. Haschke, Exp. Eye Res. 41: 687-699, 1985). The rabbit was subjected to cardiac perfusion with physiological saline under ether anesthesia. A trigeminal ganglion was excised from the rabbit, and then dispersed in a nerve dispersion liquid (Sumitomo Bakelite Co., Ltd.) to prepare trigeminal nerve cells. The trigeminal nerve cells were cultured in Neurobasal medium (Invitrogen Corp) supplemented with B27 Supplement (Invitrogen Corp; final concentration: 2% v/v) and L-glutamine (Invitrogen Corp; final concentration: 1 mM) under 5% CO2 and 95% air at a humidity of 100% and a temperature of 37° C. […]
For evaluating neuritogenesis in the cultured rabbit trigeminal nerve cells, the length of the longest neurite and the major axis of the cell body in the stained cell images scanned into the computer were measured using image analysis software (Image-Pro Plus ver. 4.0, Planetron, Inc.) The cells in 3 wells for each group were measured. […] The proportion (%) of the neurite forming cells in the total cell number was calculated (Otori, Y., Wei, J. Y., Barnstable, C. J., Invest. Opthalmol. Vis. Sic., (1998)39, 972-981). […]

[2] = test system: rabbit cornea (corneal flap model); experiment: Improving effect on reduced sensitivity of the rabbit cornea caused by using a microkeratome (2) (Test Example 7); assay type: in vivo; settings: 0.01% eye drops, 50 μL 4 times a day for 8 weeks; 7 and 8 weeks after creation of the corneal flap
Experimental: Male Japanese white rabbits with a body weight of 1.5 to 2.0 kg purchased from Kitayama Labes Co., Ltd were used. The animals were each put in separate cages placed in a room wherein a temperature of 23±3° C. and a humidity of 55±10% were kept and a light was on for 12 hours per day (lighting at 8:00 and lights-out at 20:00), and raised after arrival until the final day of the test. The animals were given 100 g of solid feed (Labo R Stock, Nosan Corporation) per day, and could freely have tap water.
Peptide 24 was used as a test substance. The test substance was dissolved in the following vehicle solution at a concentration of 0.01% to prepare eye drops. […]
Corneal sensitivity was measured before the surgery and once a week from the first week to the eighth week after the surgery using the Cochet-Bonnet aesthesiometer.
Corneal sensitivity was determined by the frequency of eyeblink responses induced when a nylon filament attached to the Cochet-Bonnet aesthesiometer was contacted the center of the cornea of the animal. […] When the animal was judged to have corneal sensitivity twice or more, the maximum value (the longest length of the nylon filament of the aesthesiometer) was recorded as corneal sensitivity of the individual at that measurement time point. The measurement was blind trial so that an examiner could not know which group the rabbit being measured belonged to. […]

Question: Which results are given for “His-Ser-Asp-Ala-Ile-Phe-Thr-Asp-Ser-Tyr-Ser-Arg-Tyr-Arg-Arg-Gln-Leu-Ala-Val-Arg-Arg-Tyr-Leu-Ala-Ala-Val-Leu-Gly-Arg-Arg-NH2 (HSDAIFTDSYSRYRRQLAVRRYLAAVLGRR-NH2) [Peptide 24]”?
Answer: proportion (%) of the neurite forming cells in the total cell number ([1]; 0.1 μM): 42.5%; proportion (%) of the neurite forming cells in the total cell number ([1]; 1 μM): 51.4%; corneal sensitivity (Cochet-Bonnet aesthesiometer) compared with control group [2]: statistically significant improving effect
